Test system: influenza virus A/California/7/09 (H1N1)pdm09
Conditions: cited from earlier work

Structure (SMILES) | ED50 (50% effective concentration) [µM]
NC(=O)c1ncn([C@@H]2O[C@H](CO)[C@@H](O)[C@H]2O)n1 [Ribavirin] | 24.6

Test system: influenza virus A/California/7/09 (H1N1)pdm09
Assay type: cell-based, influenza virus A/California/07/09 (H1N1)pdm09
Conditions: not given

Structure (SMILES) | Antiviral (virus-inhibiting) activity, in words
CC1(C)C2CC[C@@]1(C)C(=O)C2 [Compound 1, (1R)-(+)-camphor, reference compound] | does not possess a virus-inhibiting activity
CC1(C)[C@@H]2CC[C@@]1(C)/C(=N/CCC/N=C1\C[C@H]3CC[C@]1(C)C3(C)C)C2 [Compound 2a, N^1E,N^3E-N^1,N^3-bis((1R,2R,4R)-1,7,7-trimethylbicyclo[2.2.1]heptan-2-ylidene)propane-1,3-diamine] | highest antiviral activity
CC1(C)[C@@H]2CC[C@@]1(C)/C(=N/CCCCCC/N=C1\C[C@H]3CC[C@]1(C)C3(C)C)C2 [Compound 2b, N^1E,N^6E-N^1,N^6-bis((1R,2R,4R)-1,7,7-trimethylbicyclo[2.2.1]heptan-2-ylidene)hexane-1,6-diamine] | highest antiviral activity
CC1(C)[C@@H]2CC[C@@]1(C)/C(=N/CCCCCCC/N=C1\C[C@H]3CC[C@]1(C)C3(C)C)C2 [Compound 2c, N^1E,N^7E-N^1,N^7-bis((1R,2R,4R)-1,7,7-trimethylbicyclo[2.2.1]heptan-2-ylidene)heptane-1,7-diamine] | highest antiviral activity
CC1(C)[C@@H]2CC[C@@]1(C)/C(=N/CCCCCCCCCCCC/N=C1\C[C@H]3CC[C@]1(C)C3(C)C)C2 [Compound 2e, N^1E,N^12E-N^1,N^12-bis((1R,2R,4R)-1,7,7-trimethylbicyclo[2.2.1]heptan-2-ylidene)dodecane-1,12-diamine] | highest antiviral activity
CC1(C)[C@@H]2CC[C@@]1(C)/C(=N/c1ccc(Cc3ccc(/N=C4\C[C@H]5CC[C@]4(C)C5(C)C)cc3)cc1)C2 [Compound 2f, (E)-N-((1R,2R,4R)-1,7,7-trimethylbicyclo[2.2.1]heptan-2-ylidene)-4-(4-((E)-((1R,2R,4R)-1,7,7-trimethylbicyclo[2.2.1]heptan-2-ylidene)amino)benzyl)aniline] | did not exhibit high antiviral activity
CC1(C)[C@@H]2CC[C@@]1(C)[C@H](Nc1ccc(Oc3ccc(N[C@@H]4C[C@H]5CC[C@]4(C)C5(C)C)cc3)cc1)C2 [Compound 3g, (1R,2R,4R)-1,7,7-trimethyl-N-(4-(4-((1R,2R,4R)-1,7,7-trimethylbicyclo[2.2.1]heptan-2-ylamino)phenoxy)phenyl)bicyclo[2.2.1]heptan-2-amine] | did not exhibit high antiviral activity
CC1(C)[C@@H]2CC[C@@]1(C)/C(=N/c1ccc(Cc3ccc(N)cc3)cc1)C2 [Compound 5f, (E)-4-(4-aminobenzyl)-N-((1R,2R,4R)-1,7,7-trimethylbicyclo[2.2.1]heptan-2-ylidene)aniline] | did not exhibit high antiviral activity

Reference: PMC7126937 (Bioorganic & Medicinal Chemistry, 2014)
